#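 Dose response: 5 concentrations. Exposure: 48 h. Format: 96-well plates. Endpoint: linear interpolation; highest concentration if not reached. GI50 = concentration required for 50% inhibition of growth. TGI is the concentration that stops growth completely.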
# Key:
# Assay in all cases: NCI anticancer screen, dose series, 48 h
# NCI-H460 lung = tested on: NCI-H460 lung
# UO-31 renal = tested on: UO-31 renal
# HS 578T breast = tested on: HS 578T breast
# CAKI-1 renal = tested on: CAKI-1 renal
# MDA-MB-468 breast = tested on: MDA-MB-468 breast
# A498 renal = tested on: A498 renal
# MOLT-4 leukemia = tested on: MOLT-4 leukemia
# SK-OV-3 ovarian = tested on: SK-OV-3 ovarian
# SW-620 colon = tested on: SW-620 colon
# T-47D breast = tested on: T-47D breast
# SK-MEL-2 melanoma = tested on: SK-MEL-2 melanoma
# CCRF-CEM leukemia = tested on: CCRF-CEM leukemia
# SK-MEL-5 melanoma = tested on: SK-MEL-5 melanoma
# RPMI-8226 leukemia = tested on: RPMI-8226 leukemia
# SR leukemia = tested on: SR leukemia
# HCT-15 colon = tested on: HCT-15 colon
# MDA-MB-435 = tested on: MDA-MB-435
# COLO 205 colon = tested on: COLO 205 colon
# DU-145 prostate = tested on: DU-145 prostate
# K-562 leukemia = tested on: K-562 leukemia
# 786-0 renal = tested on: 786-0 renal
# IGROV1 ovarian = tested on: IGROV1 ovarian
# NCI-H226 lung = tested on: NCI-H226 lung
# UACC-62 melanoma = tested on: UACC-62 melanoma
# SF-295 CNS = tested on: SF-295 CNS
# LOX IMVI melanoma = tested on: LOX IMVI melanoma
# SNB-75 CNS = tested on: SNB-75 CNS
# OVCAR-4 ovarian = tested on: OVCAR-4 ovarian
# SNB-19 CNS = tested on: SNB-19 CNS
# BT-549 breast = tested on: BT-549 breast
# MDA-MB-231 breast = tested on: MDA-MB-231 breast
# SF-539 CNS = tested on: SF-539 CNS
# NCI-H23 lung = tested on: NCI-H23 lung
# SF-268 CNS = tested on: SF-268 CNS
# HOP-62 NSCLC = tested on: HOP-62 NSCLC
# HT29 colon = tested on: HT29 colon
# NCI/ADR-RES ovarian = tested on: NCI/ADR-RES ovarian
# NCI-H522 lung = tested on: NCI-H522 lung
# U251 CNS = tested on: U251 CNS
# HCT-116 colon = tested on: HCT-116 colon
# SK-MEL-28 melanoma = tested on: SK-MEL-28 melanoma
# EKVX NSCLC = tested on: EKVX NSCLC
# HL-60(TB) leukemia = tested on: HL-60(TB) leukemia
# SN12C renal = tested on: SN12C renal
# OVCAR-8 ovarian = tested on: OVCAR-8 ovarian
# MALME-3M melanoma = tested on: MALME-3M melanoma
# OVCAR-5 ovarian = tested on: OVCAR-5 ovarian
# PC-3 prostate = tested on: PC-3 prostate
# KM12 colon = tested on: KM12 colon
# TK-10 renal = tested on: TK-10 renal
# HCC-2998 colon = tested on: HCC-2998 colon
# ACHN renal = tested on: ACHN renal
# A549 NSCLC = tested on: A549 NSCLC
# HOP-92 NSCLC = tested on: HOP-92 NSCLC
# UACC-257 melanoma = tested on: UACC-257 melanoma
# MCF7 breast = tested on: MCF7 breast
# OVCAR-3 ovarian = tested on: OVCAR-3 ovarian
# M14 melanoma = tested on: M14 melanoma
smiles,measurement,setting,value
Cc1oc(-c2ccccc2)nc1CN[C@@H]1C[C@@H]2C[C@H]([C@H]1C)C2(C)C,GI50,NCI-H460 lung,6.32 µM
same,TGI,NCI-H460 lung,20.3 µM
same,GI50,UO-31 renal,4.65 µM
same,TGI,UO-31 renal,18.8 µM
same,GI50,HS 578T breast,11.9 µM
same,TGI,HS 578T breast,30.5 µM
same,GI50,CAKI-1 renal,13.3 µM
same,TGI,CAKI-1 renal,26.1 µM
same,GI50,MDA-MB-468 breast,2.13 µM
same,TGI,MDA-MB-468 breast,8.29 µM
same,GI50,A498 renal,13.5 µM
same,TGI,A498 renal,26.8 µM
same,GI50,MOLT-4 leukemia,16.6 µM
same,TGI,MOLT-4 leukemia,45.9 µM
same,GI50,SK-OV-3 ovarian,16.8 µM
same,TGI,SK-OV-3 ovarian,32.3 µM
same,GI50,SW-620 colon,11.4 µM
same,TGI,SW-620 colon,24.5 µM
same,GI50,T-47D breast,4.42 µM
same,TGI,T-47D breast,21.4 µM
same,GI50,SK-MEL-2 melanoma,14.5 µM
same,TGI,SK-MEL-2 melanoma,28.4 µM
same,GI50,CCRF-CEM leukemia,18.9 µM
same,TGI,CCRF-CEM leukemia,48.6 µM
same,GI50,SK-MEL-5 melanoma,3.32 µM
same,TGI,SK-MEL-5 melanoma,11.9 µM
same,GI50,RPMI-8226 leukemia,3.82 µM
same,TGI,RPMI-8226 leukemia,19.2 µM
same,GI50,SR leukemia,10.6 µM
same,TGI,SR leukemia,36.7 µM
same,GI50,HCT-15 colon,3.85 µM
same,TGI,HCT-15 colon,15.5 µM
same,GI50,MDA-MB-435,13.3 µM
same,TGI,MDA-MB-435,26.5 µM
same,GI50,COLO 205 colon,2.11 µM
same,TGI,COLO 205 colon,5.3 µM
same,GI50,DU-145 prostate,10.1 µM
same,TGI,DU-145 prostate,21.8 µM
same,GI50,K-562 leukemia,3.63 µM
same,TGI,K-562 leukemia,> 100 µM
same,GI50,786-0 renal,5.64 µM
same,TGI,786-0 renal,21.1 µM
same,GI50,IGROV1 ovarian,10.1 µM
same,TGI,IGROV1 ovarian,22.1 µM
same,GI50,NCI-H226 lung,8.99 µM
same,TGI,NCI-H226 lung,25 µM
same,GI50,UACC-62 melanoma,12.5 µM
same,TGI,UACC-62 melanoma,25 µM
same,GI50,SF-295 CNS,15.6 µM
same,TGI,SF-295 CNS,29.1 µM
same,GI50,LOX IMVI melanoma,5.17 µM
same,TGI,LOX IMVI melanoma,18.1 µM
same,GI50,SNB-75 CNS,13.2 µM
same,TGI,SNB-75 CNS,26.6 µM
same,GI50,OVCAR-4 ovarian,11.4 µM
same,TGI,OVCAR-4 ovarian,25.8 µM
same,GI50,SNB-19 CNS,14.2 µM
same,TGI,SNB-19 CNS,27.3 µM
same,GI50,BT-549 breast,4.94 µM
same,TGI,BT-549 breast,19.1 µM
same,GI50,MDA-MB-231 breast,4.56 µM
same,TGI,MDA-MB-231 breast,16.9 µM
same,GI50,SF-539 CNS,12.5 µM
same,TGI,SF-539 CNS,25 µM
same,GI50,NCI-H23 lung,12.8 µM
same,TGI,NCI-H23 lung,25.9 µM
same,GI50,SF-268 CNS,11.6 µM
same,TGI,SF-268 CNS,25.7 µM
same,GI50,HOP-62 NSCLC,14.2 µM
same,TGI,HOP-62 NSCLC,32.4 µM
same,GI50,HT29 colon,3.39 µM
same,TGI,HT29 colon,15 µM
same,GI50,NCI/ADR-RES ovarian,12.7 µM
same,TGI,NCI/ADR-RES ovarian,25.5 µM
same,GI50,NCI-H522 lung,12.7 µM
same,TGI,NCI-H522 lung,28.4 µM
same,GI50,U251 CNS,7.61 µM
same,TGI,U251 CNS,22.8 µM
same,GI50,HCT-116 colon,4.3 µM
same,TGI,HCT-116 colon,18.3 µM
same,GI50,SK-MEL-28 melanoma,7.59 µM
same,TGI,SK-MEL-28 melanoma,20.3 µM
same,GI50,EKVX NSCLC,11.2 µM
same,TGI,EKVX NSCLC,23.3 µM
same,GI50,HL-60(TB) leukemia,18 µM
same,TGI,HL-60(TB) leukemia,37.7 µM
same,GI50,SN12C renal,10.5 µM
same,TGI,SN12C renal,22.5 µM
same,GI50,OVCAR-8 ovarian,14.1 µM
same,TGI,OVCAR-8 ovarian,31.8 µM
same,GI50,MALME-3M melanoma,2.87 µM
same,TGI,MALME-3M melanoma,13.6 µM
same,GI50,OVCAR-5 ovarian,7.9 µM
same,TGI,OVCAR-5 ovarian,20.6 µM
same,GI50,PC-3 prostate,7.17 µM
same,TGI,PC-3 prostate,23.1 µM
same,GI50,KM12 colon,9.49 µM
same,TGI,KM12 colon,21.8 µM
same,GI50,TK-10 renal,15.4 µM
same,TGI,TK-10 renal,31.5 µM
same,GI50,HCC-2998 colon,4.22 µM
same,TGI,HCC-2998 colon,16.6 µM
same,GI50,ACHN renal,13.7 µM
same,TGI,ACHN renal,26.5 µM
same,GI50,A549 NSCLC,14 µM
same,TGI,A549 NSCLC,33.6 µM
same,GI50,HOP-92 NSCLC,1.49 µM
same,TGI,HOP-92 NSCLC,12.6 µM
same,GI50,UACC-257 melanoma,7.95 µM
same,TGI,UACC-257 melanoma,21.4 µM
same,GI50,MCF7 breast,7.06 µM
same,TGI,MCF7 breast,21.4 µM
same,GI50,OVCAR-3 ovarian,12.7 µM
same,TGI,OVCAR-3 ovarian,25.6 µM
same,GI50,M14 melanoma,2.21 µM
same,TGI,M14 melanoma,5.78 µM

# Source: PubChem BioAssay (NCI)
